Results on three molecules are retold here after article PMC8304783, “Antiadhesive Properties of Imidazolium Ionic Liquids Based on (−)-Menthol Against Candida spp” (International Journal of Molecular Sciences, 2021).

SMILES strings stand for the structures.

What all share (assay type): cell-based
Data set [1] relates to C. albicans B4 and Gu5 isolates. Nature of the data set: Biofilm of clinical isolates on acrylic dental crowns (crystal violet). The conditions noted are these: B4 and Gu5 (FLC-resistant); 72 h biofilm, then ILs 25 μM for 2 h. As for the experimental part: To assess the influence of ILs on biofilm formation by C. albicans strain SC5314 on dentures, the following materials were used: acrylic dental crowns, porcelain-fused-to-metal (PFMs) dental crowns and dental alloy substructures. All dentures were kind gifts from Prof. M. Łukaszewicz (Wrocław, Poland). Prior to the experiments, the dentures were sterilized by 1 h incubation in 70% pure ethanol (EtOH) solution, washed with sterile water to remove EtOH residues and dried under aseptic conditions. The experiments were performed by aseptically placing dentures in YPD, supplemented with FBS, and inoculating them with YPD-grown C. albicans suspension (0.01% Vol/Vol). After 72 h of incubation at 37 °C, the dentures were treated for 2 h with the addition of ILs (conc. = 25 µM), washed with PBS and fixed with 0.1% CV solution for 10 min, then washed with PBS to remove the stain residue. The dentures were then dried and photographed. Microscopic preparations were made of biofilm samples which were imaged using the Zeiss Axio Imager A2 microscope equipped with Zeiss Axiocam 503 mono microscope camera.
Figure S1. Detachment of adherent C. albicans clinical isolates after 2 h incubation on polystyrene surfaces by ionic liquids (ILs) (means ± SD; n = 3). Results are presented as percentage of adherent cells relative to untreated controls (100% adhesion). Statistical analysis of detachment at each concentration was performed towards corresponding control experiments (isolates untreated by ILs=100% adhesion) (*, p < 0.05; **, p < 0.01 […]
We selected C. albicans B4 and Gu5 isolates for evaluating the ability of ILs to eradicate biofilm formation on acrylic dental crowns (Figure S2). Both the strains were chosen due to their FLC‐resistance status. An IL concentration of 25 μM was selected for this investigation. In each condition, a C. albicans biofilm was formed after 72 h incubation, and the collected biomass was microscopically evaluated for the presence of hyphae, pseudohyphae and blastoconidia characteristic of C. albicans (Figure S2). […]

The next data set deals with C. glabrata ATCC90030. As to the kind of experiment: Minimal inhibitory and fungicidal concentrations (broth microdilution, CLSI M27-A3 modified). Particulars: Nakaseomyces glabratus, 28 °C; for MFC: 120 h, replated on YPD agar, 5 days, read-out: Minimal fungicidal concentration (MFC); for MIC90: ≥90% growth inhibition, 48 h, YPD, read-out: Minimal inhibitory concentration (MIC90). The method, then:
(§1) Experiments were performed according to the Clinical and Laboratory Standards Institute (2008), 3rd ed. M27-A3 [51], with modifications described previously. Briefly, MICs were determined by serially diluting ILs in YPD medium in sterile 96-well plates (Sarstedt) and inoculating with fungal suspensions (final OD600 per well = 0.01). After incubation (48 h; 28 °C), the OD600 was measured (ASYS UVM 340 Biogenet). […] Each well was then replated on YPD agar and incubated for 5 days at 28 °C.
On the technique in general: In broth dilution the organism is exposed to a series of concentrations in liquid medium.

A further data set has as its system C. krusei ATCC6258. The description is as above. The conditions noted are these: Pichia kudriavzevii, 28 °C; for MFC: 120 h, replated on YPD agar, 5 days, read-out: Minimal fungicidal concentration (MFC); for MIC90: ≥90% growth inhibition, 48 h, YPD, read-out: Minimal inhibitory concentration (MIC90). As for the experimental part: as §1
In another data set the test system is C. parapsilosis CBS10947. The data set is described as above. Particulars: Lodderomyces parapsilosis, 28 °C; for MFC: 120 h, replated on YPD agar, 5 days, read-out: Minimal fungicidal concentration (MFC); for MIC90: ≥90% growth inhibition, 48 h, YPD, read-out: Minimal inhibitory concentration (MIC90). The method, then:
as §1

The subject of a further data set is C. albicans SC5314. The data set is described as above. The conditions noted are these: Candida albicans, 28 °C; for MFC: 120 h, replated on YPD agar, 5 days, read-out: Minimal fungicidal concentration (MFC); for MIC90: ≥90% growth inhibition, 48 h, YPD, read-out: Minimal inhibitory concentration (MIC90). As for the experimental part:
as §1

In the next data set the test system is C. albicans. As to the kind of experiment: Calcofluor white staining (cell wall integrity). Particulars: ILs 25 µM, 2 h, 37 °C. The method, then:
Fungal adhesion to biomedical surfaces is strongly related to the structure of the cell wall, and the presence of adhesins (Als proteins) on the surface of the cell. In turn, the progression to biofilm formation is dependent on the ability of C. albicans to form hyphae. In conditions similar to those above (ILs conc. = 25 µM), we examined C. albicans cell wall integrity, its ability to form hyphae, and the level of ALS genes expression, encoding Als1 and Als5 adhesins (Figure 3). […] Despite some reduction, the result was not statistically significant (p = 0.12). On the other hand, after the treatment with IL 2a, the expression of ALS1 and ALS5 genes was reduced by 50 or 55%, respectively (Figure 3C). The results were statistically significant in both cases (p = 0.04 for either ALS gene). However, in case of compounds with alkyl substituents (1a and 1b), the reduction of gene expression was to a lesser degree. […] Despite observing a chain-length dependence, the results were not statistically significant (p = 0.07 for both ALS gene after treatment with 1b).
Calcofluor white was used to assess cell wall integrity in C. albicans, following our protocol. YPD-grown C. albicans cells were pelleted, washed with PBS and treated with ILs (conc. = 25 µM) for 2 h at 37 °C. Afterwards, the samples were washed with PBS, stained with calcofluor white (final conc. = 25 µM) for 5 min. Then, cell suspensions were washed with PBS, pelleted and observed under the Zeiss (Poznań, Poland) Axio Imager A2 microscope equipped with Zeiss Axiocam 503 mono microscope camera and the Zeiss HBO100 mercury lamp.

The test system of another data set is sheep erythroid PMs. As to the kind of experiment: Hemolysis assay. The conditions noted are these: sheep RBCs. As for the experimental part:
To examine any possible toxic effect towards animal cells, ILs were tested for their lytic activity on sheep erythroid PMs, in comparison to AMB (Table 3). For this part of study, higher concentrations were selected, corresponding to MFC values of tested fungi (12.5; 25 and 50 µM in case of ILs, and 0.25; 0.5 and 1 µM in case of AMB, Table 1). The compounds were ranked in terms of hemolytic activity as follows: 1a > 1b > 2a. IL with alkoxymethyl chain (2a) produced <5% hemolysis, regardless of the concentration used. Compounds with alkyl substituents (1a and 1b) were more hemolytic in 12.5 than in 25 µM concentrations, and in the highest concentration (50 µM), both compounds produced >10% and >5% hemolysis, respectively.
ILs were tested for hemolytic activity, as described previously. Briefly, 5 mL of fresh sheep blood was centrifuged (2000 rpm, 15 min), washed with PBS and resuspended in PBS to achieve hematocrit level of 50%. Red blood cells (RBCs) were treated with ILs (concentrations = 12.5, 25 and 50 µM) for 2 h at 37 °C. Afterwards, RBCs were centrifuged (2000 rpm, 5 min) and the absorbance of the supernatant was measured at 540 nm (ASYS UVM 340 Biogenet). The percentage of hemolysis was determined in comparison to the hemoglobin absorbance released by a 1% SDS solution (100% hemolysis).

Setting [2] is: ILs conc. 12.5 µM, 2 h, 37 °C, 1% SDS = 100% hemolysis.
The mark [3] stands for this setting: ILs conc. 25 µM, 2 h, 37 °C, 1% SDS = 100% hemolysis.
Where [4] appears, read: ILs conc. 50 µM, 2 h, 37 °C, 1% SDS = 100% hemolysis.

Take `CCCCCCCCCn1cc[n+](CO[C@@H]2C[C@H](C)CC[C@H]2C(C)C)c1` [1a, 1-[(1R,2S,5R)-(−)-menthoxymethyl]-3-nonylimidazolium chloride]: the “Biofilm of clinical isolates on acrylic dental crowns (CV staining)” value (shortened to “Biofilm of clinical isolates”) in data set [1] is reported as “residual CV staining”. For the same molecule, the MFC came to 25 µM with C. glabrata ATCC90030, 25 µM in the data set with C. krusei ATCC6258, 50 µM with C. parapsilosis CBS10947 and 50 µM with C. albicans SC5314. In addition, the MIC90 in the data set with C. glabrata ATCC90030 was determined as 12.5 µM; with C. krusei ATCC6258, 6.25 µM; with C. parapsilosis CBS10947, 12.5 µM; in the data set on C. albicans SC5314 it was 12.5 µM. Further, the “Calcofluor white staining of chitin (cell wall integrity)” value (“Calcofluor white staining of chitin” below) in the data set on C. albicans is listed as “well-defined, intense chitin fluoresce with clearly visible bud scars, comparable with the control staining”. Moreover, the figures for the Hemolytic activity in the data set on sheep erythroid PMs (setting [2]), in the data set with sheep erythroid PMs (setting [3]) and in the data set with sheep erythroid PMs (setting [4]) were 4.81 ± 0.02 %, 1.51 ± 0.53% and 11.56 ± 2.13%, respectively.
Take `CCCCCCCCCOCn1cc[n+](CO[C@@H]2C[C@H](C)CC[C@H]2C(C)C)c1` [2a, 1-(1R,2S,5R)-(−)-menthoxymethyl-3-nonyloxymethylimidazolium chloride]: the “Biofilm of clinical isolates” value in data set [1] is given as “prote ct ed”. Further, the MFC stood at 12.5 µM in the data set on C. glabrata ATCC90030, 12.5 µM with C. krusei ATCC6258, 25 µM in the data set with C. parapsilosis CBS10947 and 25 µM in the data set with C. albicans SC5314. Besides, the MIC90 in the data set with C. glabrata ATCC90030 turned out to be 12.5 µM; in the data set on C. krusei ATCC6258, 6.25 µM; in the data set with C. parapsilosis CBS10947 it was 12.5 µM; in the data set on C. albicans SC5314, 12.5 µM. The “Calcofluor white staining of chitin” value with C. albicans is “low fluorescence intensity and thinner calcofluor white-stained chitin layer surrounding cells than the controls”. Besides, the Hemolytic activity with sheep erythroid PMs (setting [2]) was 4.55 ± 0.82%; in the data set with sheep erythroid PMs (setting [3]), 1.78 ± 0.44%; in the data set with sheep erythroid PMs (setting [4]) it was 6.09 ± 0.48 %; with sheep erythroid PMs (regardless of the concentration used (12.5; 25 and 50 µM)), less than 5%.
Regarding `CCCCCCCCCCn1cc[n+](CO[C@@H]2C[C@H](C)CC[C@H]2C(C)C)c1` [1b, 3-decyl-1-[(1R,2S,5R)-(−)-menthoxymethyl]imidazolium chloride], the “Biofilm of clinical isolates” value in data set [1] is recorded as “residual CV staining”. In addition, the MFC was found to be 25 µM with C. glabrata ATCC90030, 25 µM in the data set on C. krusei ATCC6258, 25 µM with C. parapsilosis CBS10947 and 50 µM in the data set with C. albicans SC5314. The MIC90 with C. glabrata ATCC90030, with C. krusei ATCC6258, in the data set with C. parapsilosis CBS10947 and in the data set on C. albicans SC5314 was 25 µM throughout. The “Calcofluor white staining of chitin” value with C. albicans is recorded as “well-defined, intense chitin fluoresce with clearly visible bud scars, comparable with the control staining”. Besides, the Hemolytic activity is 2.1 ± 0.36% with sheep erythroid PMs (setting [2]), 3.01 ± 0.39% in the data set on sheep erythroid PMs (setting [3]) and 3.23 ± 0.6% in the data set on sheep erythroid PMs (setting [4]).
